Source: ChEMBL document CHEMBL1201862, “PubChem BioAssay data set” (2004)
Active and inactive are the calls of the source.

Tests used:
[1] = molecular target: T1, Luciferin 4-monooxygenase (Photinus pyralis, UniProt P08659); test: firefly luciferase enzyme inhibitors, dose response, biochemical, luminescence (AID 1891)
Protein skinhead-1 = molecular target: T2, Protein skinhead-1 (Caenorhabditis elegans, UniProt P34707); type: functional
T2 sequence (P34707 whole entry): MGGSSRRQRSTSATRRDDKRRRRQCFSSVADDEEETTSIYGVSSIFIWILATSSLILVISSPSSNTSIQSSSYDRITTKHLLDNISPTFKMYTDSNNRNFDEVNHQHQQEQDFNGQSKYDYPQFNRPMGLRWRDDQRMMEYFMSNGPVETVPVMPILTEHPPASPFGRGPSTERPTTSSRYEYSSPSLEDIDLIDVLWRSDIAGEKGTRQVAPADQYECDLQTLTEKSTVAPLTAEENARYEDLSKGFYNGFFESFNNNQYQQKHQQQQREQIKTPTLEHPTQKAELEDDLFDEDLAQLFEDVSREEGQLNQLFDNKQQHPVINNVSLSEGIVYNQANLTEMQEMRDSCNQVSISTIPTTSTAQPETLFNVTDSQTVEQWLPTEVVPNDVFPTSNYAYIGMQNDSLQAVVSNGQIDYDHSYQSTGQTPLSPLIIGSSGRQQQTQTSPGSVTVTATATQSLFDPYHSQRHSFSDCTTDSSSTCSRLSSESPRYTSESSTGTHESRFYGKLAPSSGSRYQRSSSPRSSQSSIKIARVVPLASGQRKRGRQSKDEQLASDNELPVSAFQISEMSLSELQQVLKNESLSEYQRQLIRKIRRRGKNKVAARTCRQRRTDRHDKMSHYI

[2] = molecular target: T1, Luciferin 4-monooxygenase; test: Counter Screen for Luciferase-based Assay Positives. [Related pubchem assays: 620, 618, 411 ]
HT-1080 = test: cytotoxicity in HT1080 fibrosarcoma cells, cell-based, fluorescence readout (AID 620); type: functional; details: Homo sapiens
[3] = Luminescence Cell-Based Dose Confirmation HTS to Identify Inhibitors of Platelet Dense Granule Release. [Related pubchem assays: 1663 (Primary HTS), 1678 (Summary of Project)]; type: functional
[4] = inhibitors of Bluetongue virus cytopathic effect, confirmation, arbovirus, BSR cells (AID 1250); type: functional;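 also: protection from viral cytopathic effect measured as cell viability by ATP luminescence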
[5] = molecular target: Mothers against decapentaplegic homolog 3 (Homo sapiens, UniProt P84022); test: Smad3 binding inhibitors, lysate ELISA, dose response, cell lysate, secondary confirmation, chemiluminescent ELISA, HEK293 lysate (AID 1058); type: functional
Streptococcus = test: Group A Streptococcus viability loss, dose response, counter-screen for streptokinase expression inhibitor project, luminescence, BacTiterGlo (AID 1915); type: functional, organism-based;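 also: potency for reduction of bacterial viability or growth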
[6] = HIV-1 Env-mediated cell fusion inhibitors, dose response, CCR5-tropic Env (AID 2279); type: functional
[7] = system: Streptococcus sp. 'group A'; test: growth inhibition of control SK(-) GAS strain, dose response, counter-screen for streptokinase expression inhibitor project, luminescence, kanamycin, BacTiterGlo, confirmation (AID 1900); type: functional, organism-based
Streptokinase A = molecular target: T3, Streptokinase A (Streptococcus pyogenes serotype M1, UniProt P10520); test: S. pyogenes streptokinase expression inhibitors, potency, dose response, plasminogen activation absorbance, OD405 (AID 1914); type: functional, Streptococcus pyogenes M1 GAS;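 also: secreted streptokinase activity via plasminogen activation per viability signal from cell pellet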
T3 sequence (P10520 whole entry): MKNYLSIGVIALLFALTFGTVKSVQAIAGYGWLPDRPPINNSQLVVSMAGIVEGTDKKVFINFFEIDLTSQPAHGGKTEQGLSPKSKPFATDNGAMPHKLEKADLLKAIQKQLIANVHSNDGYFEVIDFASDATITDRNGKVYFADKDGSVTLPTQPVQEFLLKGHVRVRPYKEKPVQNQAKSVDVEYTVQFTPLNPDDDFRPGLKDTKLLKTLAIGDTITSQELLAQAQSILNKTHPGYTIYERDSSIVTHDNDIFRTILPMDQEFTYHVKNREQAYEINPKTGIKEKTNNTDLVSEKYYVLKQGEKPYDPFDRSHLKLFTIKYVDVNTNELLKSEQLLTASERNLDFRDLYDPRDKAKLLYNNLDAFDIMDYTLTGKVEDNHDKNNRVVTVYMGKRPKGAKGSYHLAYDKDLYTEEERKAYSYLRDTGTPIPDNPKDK

[8] = molecular target: Induced myeloid leukemia cell differentiation protein Mcl-1 (Homo sapiens, UniProt Q07820); type: functional
[9] = molecular target: Neuropeptide Y receptor type 1 (Homo sapiens, UniProt P25929); type: functional;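 also: HEK293 cells with a CNG channel challenged with NPY then isoproterenol; potency as antagonist that reverses NPY suppression of cAMP signal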
[10] = molecular target: Neuropeptide Y receptor type 2 (Homo sapiens, UniProt P49146); type: functional, cell-based;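 also: HEK293 cells expressing the receptor and a CNG channel; stimulus was NPY near EC95 followed by isoproterenol to raise cAMP; antagonist potency measured as restoring cAMP signal that NPY suppresses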
Sequence of Neuropeptide Y receptor type 2 (P49146 whole entry): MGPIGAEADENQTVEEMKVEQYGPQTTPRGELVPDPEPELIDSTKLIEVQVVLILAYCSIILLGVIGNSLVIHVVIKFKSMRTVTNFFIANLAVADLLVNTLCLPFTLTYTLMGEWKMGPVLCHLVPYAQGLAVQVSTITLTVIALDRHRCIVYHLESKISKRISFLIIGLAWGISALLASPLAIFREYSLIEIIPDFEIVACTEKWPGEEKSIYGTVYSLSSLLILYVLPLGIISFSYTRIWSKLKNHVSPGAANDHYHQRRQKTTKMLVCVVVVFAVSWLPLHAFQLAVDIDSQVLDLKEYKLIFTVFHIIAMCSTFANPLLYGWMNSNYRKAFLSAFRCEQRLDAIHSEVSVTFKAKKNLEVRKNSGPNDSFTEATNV

T1 sequence (P08659 whole entry): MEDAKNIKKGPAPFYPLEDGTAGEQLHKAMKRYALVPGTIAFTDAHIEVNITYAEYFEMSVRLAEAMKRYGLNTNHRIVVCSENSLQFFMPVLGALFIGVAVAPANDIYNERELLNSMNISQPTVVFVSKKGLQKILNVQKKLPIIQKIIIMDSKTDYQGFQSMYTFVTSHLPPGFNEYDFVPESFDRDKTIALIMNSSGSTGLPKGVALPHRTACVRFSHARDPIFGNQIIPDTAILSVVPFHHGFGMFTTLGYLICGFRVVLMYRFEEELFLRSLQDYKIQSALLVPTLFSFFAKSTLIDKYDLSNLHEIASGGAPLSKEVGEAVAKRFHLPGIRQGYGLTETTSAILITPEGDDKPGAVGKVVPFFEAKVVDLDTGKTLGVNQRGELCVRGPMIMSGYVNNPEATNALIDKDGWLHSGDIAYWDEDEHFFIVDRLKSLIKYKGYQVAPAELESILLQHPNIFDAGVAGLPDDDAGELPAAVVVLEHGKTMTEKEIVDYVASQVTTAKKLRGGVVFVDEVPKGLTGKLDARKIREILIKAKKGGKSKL
Sequence of Mothers against decapentaplegic homolog 3 (P84022 whole entry): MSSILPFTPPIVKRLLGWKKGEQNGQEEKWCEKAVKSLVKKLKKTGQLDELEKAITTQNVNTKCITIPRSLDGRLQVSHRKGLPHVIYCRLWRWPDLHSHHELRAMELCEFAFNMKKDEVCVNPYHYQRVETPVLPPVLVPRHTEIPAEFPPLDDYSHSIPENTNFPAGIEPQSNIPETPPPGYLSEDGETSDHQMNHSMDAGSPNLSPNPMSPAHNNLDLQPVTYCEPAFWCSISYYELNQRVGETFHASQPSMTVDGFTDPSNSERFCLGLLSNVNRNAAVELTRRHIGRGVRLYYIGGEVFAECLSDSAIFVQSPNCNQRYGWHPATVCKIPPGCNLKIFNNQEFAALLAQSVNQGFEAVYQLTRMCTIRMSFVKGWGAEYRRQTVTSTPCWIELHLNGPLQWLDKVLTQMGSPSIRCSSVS
Sequence of Neuropeptide Y receptor type 1 (P25929 whole entry): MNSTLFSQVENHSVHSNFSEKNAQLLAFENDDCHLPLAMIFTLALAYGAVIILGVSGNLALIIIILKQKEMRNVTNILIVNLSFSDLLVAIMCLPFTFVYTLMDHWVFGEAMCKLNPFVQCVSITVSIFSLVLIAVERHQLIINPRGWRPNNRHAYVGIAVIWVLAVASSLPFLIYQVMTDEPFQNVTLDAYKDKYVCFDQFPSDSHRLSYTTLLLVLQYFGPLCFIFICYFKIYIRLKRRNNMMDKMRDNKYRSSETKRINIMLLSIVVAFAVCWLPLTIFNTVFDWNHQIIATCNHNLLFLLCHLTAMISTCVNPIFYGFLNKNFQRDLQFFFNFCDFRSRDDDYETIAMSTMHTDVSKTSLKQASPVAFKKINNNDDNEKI
Sequence of Induced myeloid leukemia cell differentiation protein Mcl-1 (Q07820 whole entry): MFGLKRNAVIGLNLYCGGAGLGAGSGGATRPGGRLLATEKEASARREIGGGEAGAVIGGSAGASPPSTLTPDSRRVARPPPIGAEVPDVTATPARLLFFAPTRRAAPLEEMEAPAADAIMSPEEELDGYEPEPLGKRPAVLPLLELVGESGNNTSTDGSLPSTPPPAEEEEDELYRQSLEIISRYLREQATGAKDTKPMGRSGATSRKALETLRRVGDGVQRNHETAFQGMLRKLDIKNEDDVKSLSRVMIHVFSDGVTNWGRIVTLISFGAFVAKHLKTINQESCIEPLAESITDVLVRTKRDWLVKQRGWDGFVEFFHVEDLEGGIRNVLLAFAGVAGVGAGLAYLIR

Q: For Nc1ccc2nc(-c3ccccc3)sc2c1, which EC50 [1] is on record?
A: 0.958 µM (active)

Q: And the IC50 (Protein skinhead-1)?
A: 55.9 µM (inactive)

Q: What about the EC50 [2] of the same compound?
A: 23.5 µM (active)

Q: What about the EC50 (HT-1080) of the same compound?
A: > 50 µM (not active)

Q: What about the EC50 [3] of the same compound?
A: 2.44 µM (active)

Q: For COc1ccc(-c2c3c(cc(C)[n+]2[O-])oc2ccc(OC)cc23)cc1, which IC50 [4] is on record?
A: 22 µM (active)

Q: For Oc1cc2c(cc1C(c1ccc(Cl)cc1)N1CCOCC1)OCO2 (centres undefined), which IC50 [5] is on record?
A: 10.3 µM (not active)

Q: Which results are given for CC1(c2ccccc2)CC(C)(C)N2C(=O)/C(=C3\SC(=S)NC3=O)c3cccc1c32 (centres undefined)?
A: EC50 (Streptococcus): 3.08 µM (active); IC50 [6]: 9.92 µM (active); EC50 [7]: 0.435 µM (active); EC50 (Streptokinase A): > 150 µM (not active); IC50 [8]: 1.18 µM (active)

Q: Which IC50 [9] does the source give for COc1ccc(-c2nc(C#N)c(NC(C)c3ccccc3)o2)cc1OC (centres undefined) here?
A: 7.77 µM (active)

Q: What about the IC50 [10] of the same compound?
A: 3.55 µM (active)
